Reference: PubChem BioAssay (NCI)
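48-hour exposure; five concentrations; linearly interpolated endpoints. At the TGI there is no net growth.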

Columns and labels:
Experiment in all cases: NCI-60 cell line screen, 48 h
786-0 renal = system: 786-0 renal
A498 renal = system: A498 renal
A549 NSCLC = system: A549 NSCLC
ACHN renal = system: ACHN renal
CAKI-1 renal = system: CAKI-1 renal
CCRF-CEM leukemia = system: CCRF-CEM leukemia
COLO 205 colon = system: COLO 205 colon
DLD-1 colon = system: DLD-1 colon
DMS 114 small cell lung = system: DMS 114 small cell lung
DMS 273 small cell lung = system: DMS 273 small cell lung
EKVX NSCLC = system: EKVX NSCLC
HCC-2998 colon = system: HCC-2998 colon
HCT-116 colon = system: HCT-116 colon
HCT-15 colon = system: HCT-15 colon
HL-60(TB) leukemia = system: HL-60(TB) leukemia
HOP-18 NSCLC = system: HOP-18 NSCLC
HOP-62 NSCLC = system: HOP-62 NSCLC
HOP-92 NSCLC = system: HOP-92 NSCLC
HT29 colon = system: HT29 colon
IGROV1 ovarian = system: IGROV1 ovarian
K-562 leukemia = system: K-562 leukemia
KM12 colon = system: KM12 colon
KM20L2 colon = system: KM20L2 colon
LOX IMVI melanoma = system: LOX IMVI melanoma
LXFL 529 NSCLC = system: LXFL 529 NSCLC
M14 melanoma = system: M14 melanoma
M19-MEL melanoma = system: M19-MEL melanoma
MALME-3M melanoma = system: MALME-3M melanoma
MOLT-4 leukemia = system: MOLT-4 leukemia
NCI-H226 lung = system: NCI-H226 lung
NCI-H23 lung = system: NCI-H23 lung
NCI-H460 lung = system: NCI-H460 lung
OVCAR-3 ovarian = system: OVCAR-3 ovarian
OVCAR-4 ovarian = system: OVCAR-4 ovarian
OVCAR-5 ovarian = system: OVCAR-5 ovarian
OVCAR-8 ovarian = system: OVCAR-8 ovarian
RPMI-8226 leukemia = system: RPMI-8226 leukemia
RXF 393 renal = system: RXF 393 renal
RXF-631 renal = system: RXF-631 renal
SF-268 CNS = system: SF-268 CNS
SF-295 CNS = system: SF-295 CNS
SF-539 CNS = system: SF-539 CNS
SK-MEL-28 melanoma = system: SK-MEL-28 melanoma
SK-MEL-5 melanoma = system: SK-MEL-5 melanoma
SK-OV-3 ovarian = system: SK-OV-3 ovarian
SN12C renal = system: SN12C renal
SNB-19 CNS = system: SNB-19 CNS
SNB-75 CNS = system: SNB-75 CNS
SNB-78 CNS = system: SNB-78 CNS
SR leukemia = system: SR leukemia
SW-620 colon = system: SW-620 colon
TK-10 renal = system: TK-10 renal
U251 CNS = system: U251 CNS
UACC-257 melanoma = system: UACC-257 melanoma
UACC-62 melanoma = system: UACC-62 melanoma
XF 498 CNS = system: XF 498 CNS
NCI-H522 lung = system: NCI-H522 lung
SK-MEL-2 melanoma = system: SK-MEL-2 melanoma
UO-31 renal = system: UO-31 renal

For `COc1cc2[nH]c3c(c2cc1OC)CCN[C@]31CC[C@]2(CC3c4c(cc(OC)c(O)c42)CCN3C)C[C@H]1OC` (some centres undefined), the TGI (786-0 renal) was 32.6 µM, the TGI (A498 renal) was 70.9 µM and the TGI (A549 NSCLC) was 68.8 µM. It also gave a TGI (ACHN renal) of 62.4 µM, a TGI (CAKI-1 renal) greater than 100 µM and a TGI (CCRF-CEM leukemia) of 26.7 µM. The TGI (COLO 205 colon) was 27.3 µM, the TGI (DLD-1 colon) was 81 µM and the TGI (DMS 114 small cell lung) was 31.4 µM. The TGI (DMS 273 small cell lung) was 4.46 µM, the TGI (EKVX NSCLC) was greater than 100 µM and the TGI (HCC-2998 colon) was 29.8 µM. The TGI (HCT-116 colon) was 31.6 µM, the TGI (HCT-15 colon) was 43.1 µM and the TGI (HL-60(TB) leukemia) was 24.6 µM. The TGI (HOP-18 NSCLC) was 46.7 µM, the TGI (HOP-62 NSCLC) was 48 µM and the TGI (HOP-92 NSCLC) was 75.7 µM. The TGI (HT29 colon) was 63.3 µM, the TGI (IGROV1 ovarian) was 80.6 µM and the TGI (K-562 leukemia) was 23.7 µM. For the same compound, the TGI (KM12 colon) was 35.6 µM, the TGI (KM20L2 colon) was 60.5 µM and the TGI (LOX IMVI melanoma) was 56 µM. It also gave a TGI (LXFL 529 NSCLC) of 61 µM, a TGI (M14 melanoma) of 29.5 µM and a TGI (M19-MEL melanoma) of 32.9 µM. The TGI (MALME-3M melanoma) was 36.3 µM, the TGI (MOLT-4 leukemia) was 33.8 µM and the TGI (NCI-H226 lung) was greater than 100 µM. For the same compound, the TGI (NCI-H23 lung) was greater than 100 µM, the TGI (NCI-H460 lung) was 63.5 µM and the TGI (OVCAR-3 ovarian) was 46.2 µM. The TGI (OVCAR-4 ovarian) was 43.3 µM, the TGI (OVCAR-5 ovarian) was greater than 100 µM and the TGI (OVCAR-8 ovarian) was 50 µM. The TGI (RPMI-8226 leukemia) was 41.9 µM, the TGI (RXF 393 renal) was 18.6 µM and the TGI (RXF-631 renal) was 25.7 µM. For the same compound, the TGI (SF-268 CNS) was 68.2 µM, the TGI (SF-295 CNS) was 36.4 µM and the TGI (SF-539 CNS) was 31.5 µM. It also gave a TGI (SK-MEL-28 melanoma) of 36.6 µM, a TGI (SK-MEL-5 melanoma) of 30.6 µM and a TGI (SK-OV-3 ovarian) of 59.1 µM. The TGI (SN12C renal) was 62.8 µM, the TGI (SNB-19 CNS) was greater than 100 µM and the TGI (SNB-75 CNS) was 45.5 µM. For the same compound, the TGI (SNB-78 CNS) was 60.4 µM, the TGI (SR leukemia) was 40 µM and the TGI (SW-620 colon) was 53.3 µM. The TGI (TK-10 renal) was 51.1 µM, the TGI (U251 CNS) was 36 µM and the TGI (UACC-257 melanoma) was 37.1 µM. It also gave a TGI (UACC-62 melanoma) of 49 µM and a TGI (XF 498 CNS) of 29.8 µM.
For `O=C(Nc1cc(Cl)c(Cl)cc1Cl)C(=O)C1C(=O)NC(=S)NC1=O`, the TGI (786-0 renal) was greater than 100 µM, the TGI (A498 renal) was greater than 100 µM and the TGI (A549 NSCLC) was greater than 100 µM. For the same compound, the TGI (ACHN renal) was greater than 100 µM, the TGI (CAKI-1 renal) was greater than 100 µM and the TGI (CCRF-CEM leukemia) was greater than 100 µM. It also gave a TGI (COLO 205 colon) greater than 100 µM, a TGI (DLD-1 colon) greater than 100 µM and a TGI (DMS 114 small cell lung) greater than 100 µM. For the same compound, the TGI (DMS 273 small cell lung) was greater than 100 µM, the TGI (EKVX NSCLC) was greater than 100 µM and the TGI (HCC-2998 colon) was greater than 100 µM. For the same compound, the TGI (HCT-116 colon) was greater than 100 µM, the TGI (HCT-15 colon) was greater than 100 µM and the TGI (HL-60(TB) leukemia) was greater than 100 µM. The TGI (HOP-18 NSCLC) was greater than 100 µM, the TGI (HOP-62 NSCLC) was greater than 100 µM and the TGI (HOP-92 NSCLC) was greater than 100 µM. For the same compound, the TGI (HT29 colon) was greater than 100 µM, the TGI (IGROV1 ovarian) was greater than 100 µM and the TGI (K-562 leukemia) was greater than 100 µM. The TGI (KM12 colon) was greater than 100 µM, the TGI (KM20L2 colon) was greater than 100 µM and the TGI (LOX IMVI melanoma) was greater than 100 µM. It also gave a TGI (LXFL 529 NSCLC) greater than 100 µM, a TGI (M14 melanoma) greater than 100 µM and a TGI (M19-MEL melanoma) greater than 100 µM. It also gave a TGI (MALME-3M melanoma) greater than 100 µM, a TGI (MOLT-4 leukemia) greater than 100 µM and a TGI (NCI-H226 lung) greater than 100 µM. For the same compound, the TGI (NCI-H23 lung) was greater than 100 µM, the TGI (NCI-H460 lung) was greater than 100 µM and the TGI (NCI-H522 lung) was greater than 100 µM. The TGI (OVCAR-4 ovarian) was greater than 100 µM, the TGI (OVCAR-5 ovarian) was greater than 100 µM and the TGI (OVCAR-8 ovarian) was greater than 100 µM. It also gave a TGI (RPMI-8226 leukemia) greater than 100 µM, a TGI (RXF 393 renal) greater than 100 µM and a TGI (RXF-631 renal) greater than 100 µM. For the same compound, the TGI (SF-268 CNS) was greater than 100 µM, the TGI (SF-295 CNS) was greater than 100 µM and the TGI (SF-539 CNS) was greater than 100 µM. For the same compound, the TGI (SK-MEL-2 melanoma) was greater than 100 µM, the TGI (SK-MEL-28 melanoma) was greater than 100 µM and the TGI (SK-MEL-5 melanoma) was greater than 100 µM. It also gave a TGI (SK-OV-3 ovarian) greater than 100 µM, a TGI (SN12C renal) greater than 100 µM and a TGI (SNB-19 CNS) greater than 100 µM. For the same compound, the TGI (SNB-75 CNS) was greater than 100 µM, the TGI (SNB-78 CNS) was greater than 100 µM and the TGI (SR leukemia) was greater than 100 µM. It also gave a TGI (SW-620 colon) greater than 100 µM, a TGI (TK-10 renal) greater than 100 µM and a TGI (U251 CNS) greater than 100 µM. It also gave a TGI (UACC-257 melanoma) greater than 100 µM, a TGI (UACC-62 melanoma) greater than 100 µM and a TGI (UO-31 renal) greater than 100 µM. The TGI (XF 498 CNS) was greater than 100 µM.
